Results from patent US20220081435A1, “ANDROGEN RECEPTOR PROTEIN DEGRADERS” (THE REGENTS OF THE UNIVERSITY OF MICHIGAN, priority 2019, published 2022).

Target: T1, AR protein (Homo sapiens, UniProt P10275, T878A)
T1 construct: The percent AR protein degradation induced by these compounds at various concentrations in LNCaP cells; host or cells: LNCaP
T1 sequence (P10275 1-920 T878A): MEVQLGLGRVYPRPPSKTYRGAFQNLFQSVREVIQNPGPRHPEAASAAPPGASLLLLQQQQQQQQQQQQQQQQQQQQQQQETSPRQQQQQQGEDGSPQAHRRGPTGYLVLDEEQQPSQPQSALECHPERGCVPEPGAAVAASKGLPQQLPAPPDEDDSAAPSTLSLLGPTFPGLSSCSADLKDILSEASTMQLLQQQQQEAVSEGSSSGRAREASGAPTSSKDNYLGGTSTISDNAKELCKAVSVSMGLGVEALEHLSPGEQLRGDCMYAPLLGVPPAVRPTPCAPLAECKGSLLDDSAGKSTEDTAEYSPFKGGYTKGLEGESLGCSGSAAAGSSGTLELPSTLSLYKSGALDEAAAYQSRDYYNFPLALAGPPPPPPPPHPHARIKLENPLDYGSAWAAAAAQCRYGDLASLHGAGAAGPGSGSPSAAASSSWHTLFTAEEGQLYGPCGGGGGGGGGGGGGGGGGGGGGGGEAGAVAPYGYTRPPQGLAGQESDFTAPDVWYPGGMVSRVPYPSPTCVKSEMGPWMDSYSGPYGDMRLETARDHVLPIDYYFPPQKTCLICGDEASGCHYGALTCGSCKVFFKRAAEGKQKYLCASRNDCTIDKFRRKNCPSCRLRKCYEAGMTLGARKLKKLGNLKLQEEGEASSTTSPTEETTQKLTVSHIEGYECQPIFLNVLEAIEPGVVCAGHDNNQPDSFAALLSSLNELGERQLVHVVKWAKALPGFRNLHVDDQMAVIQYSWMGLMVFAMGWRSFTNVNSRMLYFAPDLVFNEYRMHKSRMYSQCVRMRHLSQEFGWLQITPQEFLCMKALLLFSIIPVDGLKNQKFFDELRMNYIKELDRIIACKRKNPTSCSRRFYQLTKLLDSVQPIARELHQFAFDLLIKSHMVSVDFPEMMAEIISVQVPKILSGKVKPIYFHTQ
Test: AR protein degradation in LNCaP cells (Western blotting)
Assay type: cell-based
Details: for % AR protein degradation in LNCaP Cells / Dmax at 0.01 µM / Dmax at 0.1 µM / Dmax at 1 µM / Dmax at 10 µM: treatment time 6 h, average of three independent experiments; for AR degradation (Western blotting, dose-dependent) / Dmax at 0.01 µM / Dmax at 0.1 µM / Dmax at 1 µM / Dmax at 10 µM: LNCaP; for Dmax at 0.1 µM / Dmax at 1 µM / Dmax at 10 µM: read-out: % AR protein degradation in LNCaP Cells
Protocol: Cell lines and Cell Culture: All the LNCaP, VCaP and 22RV1 cells used were purchased from American Type Culture Collection (ATCC). […] All of the cells were supplemented with 10% fetal bovine serum (Invitrogen) at 37° C. in a humidified 5% CO2 incubator.
Western Blotting. Treated cells were lysed by RIPA buffer supplemented with protease and phosphatase inhibitors. […] Software ImageJ was used to quantify the percentage of AR degradation. The net protein bands and loading controls are calculated by deducting the background from the inverted band value. The final relative quantification values are the ratio of net band to net loading control.

Compound | % AR protein degradation in LNCaP Cells (0.1 μM) [%] | % AR protein degradation in LNCaP Cells (1 μM) [%] | Dmax at 0.01 µM (0.01 μM) [%] | Dmax at 0.1 µM (0.1 μM) [%] | Dmax at 1 µM (1 μM) [%] | further results
Cc1cc([C@H](C(=O)N2C[C@H](O)C[C@H]2C(=O)N[C@@H](CC(=O)N2CCC(N3CCC(C#Cc4ccc(C(=O)N[C@H]5C(C)(C)[C@H](Oc6ccc(C#N)c(Cl)c6)C5(C)C)cc4)CC3)CC2)c2ccc(-c3scnc3C)cc2)C(C)C)on1 [Compound 32, (2S,4R)—N—((S)-3-(4-((4-(((1r,3r)-3-(3-Chloro-4-cyanophenoxy)-2,2,4,4-tetramethyl-cyclobutyl)carbamoyl)phenyl)ethynyl)-[1,4′-bipiperidin]-1′-yl)-1-(4-(4-methylthiazol-5-yl)phenyl)-3-oxopropyl)-4-hydroxy-1-((R)-3-methyl-2-(3-methylisoxazol-5-yl)butanoyl)pyrrolidine-2-carboxamide] | 98 | 99 |  |  |  | % AR protein degradation in LNCaP Cells (0.01 μM): 76%; AR degradation (Western blotting, dose-dependent) (at 10 nM): partial AR degradation; AR degradation (Western blotting, dose-dependent) (at both 100 nM and 1 μM): essentially complete AR degradation
Cc1ncsc1-c1ccc([C@H](CC(=O)N2CCC(N3CCC(C#Cc4ccc(C(=O)N[C@H]5C(C)(C)[C@H](Oc6ccc(C#N)c(Cl)c6)C5(C)C)cc4)CC3)CC2)NC(=O)[C@@H]2C[C@@H](O)CN2C(=O)[C@H](NC(=O)C2(F)CC2)C(C)(C)C)cc1 [Compound 38, (2S,4R)—N—((S)-3-(4-((4-(((1r,3r)-3-(3-Chloro-4-cyanophenoxy)-2,2,4,4-tetramethyl-cyclobutyl)carbamoyl)phenyl)ethynyl)-[1,4′-bipiperidin]-1′-yl)-1-(4-(4-methylthiazol-5-yl)phenyl)-3-oxopropyl)-1-((R)-2-(1-fluorocyclopropane-1-carboxamido)-3,3-dimethyl-butanoyl)-4-hydroxypyrrolidine-2-carboxamide] | <5 | <5 |  |  |  | % AR protein degradation in LNCaP Cells (10 μM): <5%
Cc1ncsc1-c1ccc([C@@H](CC(=O)N2CCC(N3CCC(C#Cc4ccc(C(=O)N[C@H]5C(C)(C)[C@H](Oc6ccc(C#N)c(Cl)c6)C5(C)C)cc4)CC3)CC2)NC(=O)[C@@H]2C[C@@H](O)CN2C(=O)[C@@H](NC(=O)C2(F)CC2)C(C)(C)C)cc1 [Compound 37, (2S,4R)—N—((R)-3-(4-((4-(((1r,3r)-3-(3-Chloro-4-cyanophenoxy)-2,2,4,4-tetramethyl-cyclobutyl)carbamoyl)phenyl)ethynyl)-[1,4′-bipiperidin]-1′-yl)-1-(4-(4-methylthiazol-5-yl)phenyl)-3-oxopropyl)-1-((S)-2-(1-fluorocyclopropane-1-carboxamido)-3,3-dimethyl-butanoyl)-4-hydroxypyrrolidine-2-carboxamide] | <5 | <5 |  |  |  | % AR protein degradation in LNCaP Cells (10 μM): <5%
CC(=O)N[C@H](C(=O)N1C[C@H](O)C[C@H]1C(=O)N[C@@H](CC(=O)N1CCC(N2CCC(C#Cc3ccc(C(=O)N[C@H]4C(C)(C)[C@H](Oc5ccc(C#N)c(Cl)c5)C4(C)C)cc3)CC2)CC1)c1ccc(-c2scnc2C)cc1)C(C)(C)C [Compound 36, (2S,4R)-1-((S)-2-Acetamido-3,3-dimethylbutanoyl)-N—((S)-3-(4-((4-(((1r,3r)-3-(3-chloro-4-cyanophenoxy)-2,2,4,4-tetramethylcyclobutyl)carbamoyl)phenyl)ethynyl)-[1,4′-bipiperidin]-1′-yl)-1-(4-(4-methylthiazol-5-yl)phenyl)-3-oxopropyl)-4-hydroxypyrrolidine-2-carboxamide] | 77 | 99 |  |  |  | % AR protein degradation in LNCaP Cells (0.01 μM): 39%
Cc1ncsc1-c1ccc(CNC(=O)C2C[C@@H](O)CN2C(=O)[C@@H](NC(=O)CCCCCCCCCCNC(=O)c2ccc(N3C(=S)N(c4ccc(C#N)c(C(F)(F)F)c4)C(=O)C3(C)C)cc2F)C(C)(C)C)cc1 (stereo partly drawn) [Compound 16, (4R)-1-((S)-2-(11-(4-(3-(4-Cyano-3-(trifluoromethyl)phenyl)-5,5-dimethyl-4-oxo-2-thioxoimidazolidin-1-yl)-2-fluorobenzamido)undecanamido)-3,3-dimethylbutanoyl)-4-hydroxy-N-(4-(4-methylthiazol-5-yl)benzyl)pyrrolidine-2-carboxamide] |  |  | 11 | 48 | 86 | 
Cc1cc([C@H](C(=O)N2C[C@H](O)C[C@H]2C(=O)N[C@@H](CC(=O)NCCCN2CCN(c3ccc(C#Cc4ccc(N5C(=S)N(c6ccc(C#N)c(C(F)(F)F)c6)C(=O)C5(C)C)cc4)cn3)CC2)c2ccc(-c3scnc3C)cc2)C(C)C)on1 [Compound 27, (2S,4R)—N—((S)-3-((3-(4-(5-((4-(3-(4-Cyano-3-(trifluoromethyl)phenyl)-5,5-dimethyl-4-oxo-2-thioxoimidazolidin-1-yl)phenyl)ethynyl)pyridin-2-yl)piperazin-1-yl)propyl)amino)-1-(4-(4-methylthiazol-5-yl)phenyl)-3-oxopropyl)-4-hydroxy-1-((R)-3-methyl-2-(3-methylisoxazol-5-yl)butanoyl)pyrrolidine-2-carboxamide] |  |  | 27 | 75 | 94 | 
Cc1ncsc1-c1ccc(CNC(=O)C2C[C@@H](O)CN2C(=O)[C@@H](NC(=O)CCNC(=O)c2ccc(N3C(=S)N(c4ccc(C#N)c(C(F)(F)F)c4)C(=O)C3(C)C)cc2F)C(C)(C)C)cc1 (stereo partly drawn) [Compound 8, (4R)-1-((S)-2-(3-(4-(3-(4-Cyano-3-(trifluoromethyl)phenyl)-5,5-dimethyl-4-oxo-2-thioxoimidazolidin-1-yl)-2-fluorobenzamido)propanamido)-3,3-dimethylbutanoyl)-4-hydroxy-N-(4-(4-methylthiazol-5-yl)benzyl)pyrrolidine-2-carboxamide] |  |  |  | 26 | 35 | Dmax at 10 µM (10 μM): 28%
Cc1ncsc1-c1ccc(CNC(=O)C2C[C@@H](O)CN2C(=O)[C@@H](NC(=O)CCCCCCCCCNC(=O)c2ccc(N3C(=S)N(c4ccc(C#N)c(C(F)(F)F)c4)C(=O)C3(C)C)cc2F)C(C)(C)C)cc1 (stereo partly drawn) [Compound 15, (4R)-1-((S)-2-(10-(4-(3-(4-Cyano-3-(trifluoromethyl)phenyl)-5,5-dimethyl-4-oxo-2-thioxoimidazolidin-1-yl)-2-fluorobenzamido)decanamido)-3,3-dimethylbutanoyl)-4-hydroxy-N-(4-(4-methylthiazol-5-yl)benzyl)pyrrolidine-2-carboxamide] |  |  | 10 | 48 | 88 | 
Cc1ncsc1-c1ccc(CNC(=O)C2C[C@@H](O)CN2C(=O)[C@@H](NC(=O)CCCCCCCNC(=O)c2ccc(N3C(=S)N(c4ccc(C#N)c(C(F)(F)F)c4)C(=O)C3(C)C)cc2F)C(C)(C)C)cc1 (stereo partly drawn) [Compound 13, (4R)-1-((S)-2-(8-(4-(3-(4-Cyano-3-(trifluoromethyl)phenyl)-5,5-dimethyl-4-oxo-2-thioxoimidazolidin-1-yl)-2-fluorobenzamido)octanamido)-3,3-dimethylbutanoyl)-4-hydroxy-N-(4-(4-methylthiazol-5-yl)benzyl)pyrrolidine-2-carboxamide] |  |  | 8 | 29 | 65 | 
Cc1ncsc1-c1ccc(CNC(=O)C2C[C@@H](O)CN2C(=O)[C@@H](NC(=O)CCCCCNC(=O)c2ccc(N3C(=S)N(c4ccc(C#N)c(C(F)(F)F)c4)C(=O)C3(C)C)cc2F)C(C)(C)C)cc1 (stereo partly drawn) [Compound 11, (4R)-1-((S)-2-(6-(4-(3-(4-Cyano-3-(trifluoromethyl)phenyl)-5,5-dimethyl-4-oxo-2-thioxoimidazolidin-1-yl)-2-fluorobenzamido)hexanamido)-3,3-dimethylbutanoyl)-4-hydroxy-N-(4-(4-methylthiazol-5-yl)benzyl)pyrrolidine-2-carboxamide] |  |  |  | 11 | 25 | Dmax at 10 µM (10 μM): 29%
